# From the SangsterLogP compilation
# Test: method code SF-AS, from DOI: 10.1016/j.jct.2013.01.022
# Conditions: pH 7.4
row,SMILES,logD
1,Cc1ccc(NC2=NCCC3(CCCCC3)S2)cc1Cl,2.54
2,CCc1ccc(NC2=NCCC3(CCCCC3)S2)cc1,2.22
3,Cc1ccc(NC2=NCCC3(CCCCC3)S2)cc1,1.88
4,CC(=O)c1ccc(NC2=NCCC3(CCCCC3)S2)cc1,1.89
5,FC(F)(F)c1ccc(NC2=NCCC3(CCCCC3)S2)cc1,2.45
6,CC(C)c1ccc(NC2=NCCC3(CCCCC3)S2)cc1,1.75

# Other lines, results leading:
row,logD,SMILES
1,1.27,c1ccc(NC2=NCCC3(CCCCC3)S2)cc1
2,1.55,O=C(NC1=NCCC2(CCCCC2)S1)c1ccccc1
3,2.43,Brc1ccc(NC2=NCCC3(CCCCC3)S2)cc1
4,2.4,Clc1ccc(NC2=NCCC3(CCCCC3)S2)cc1
